Laboratory results taken from patent US20100093721A1, “PHENYL AND HETEROARYL SUBSTITUTED THIENO[2,3-d]PYRIMIDINES AND THEIR USE AS ADENOSINE A2a RECEPTOR ANTAGONISTS” (priority 2008, published 2010).
Structures can show the parent of a compound that is named as a salt.

How the values were obtained:
[1] = biological target: T1, human adenosine A2a receptor (Homo sapiens, UniProt P29274); test: Adenosine A2a Receptor Functional Assay (A2AGAL2); assay type: cell-based; conditions: CHO-K1 cells, cAMP inducible beta-galactosidase reporter, 15 nM NECA agonist challenge
T1 construct: expressed in transfected cells; host or cells: CHO-K1
Description: Adenosine A2a Receptor Functional Assay (A2AGAL2)
Prior to assay, these plates were cultured for two days at 37° C., 5% CO2, 90% Rh. On the day of the functional assay, culture media was removed and replaced with 45 uL assay medium (Hams/F-12 Modified (Mediatech #10-080CV) supplemented w/0.1% BSA). Test compounds were diluted and 11 point curves created at a 1000× concentration in 100% DMSO. Immediately after addition of assay media to the cell plates, 50 nL of the appropriate test compound antagonist or agonist control curves were added to cell plates using a Cartesian Hummingbird. […] A control curve of NECA, a DMSO/Media control, and a single dose of Forskolin (Sigma F3917) were also included on each plate. After additions, cell plates were allowed to incubate at 37° C., 5% CO2, 90% Rh for 5.5-6 hours. After incubation, media was removed, and cell plates were washed 1×50 uL with DPBS w/o Ca & Mg (Mediatech 21-031-CV). Into dry wells, 20 uL of 1× Reporter Lysis Buffer (Promega E3971 (diluted in dH2O from 5× stock)) was added to each well and plates frozen at −20° C. overnight. For β-galactosidase enzyme colorimetric assay, plates were thawed out at room temperature and 20 μL 2× assay buffer (Promega) was added to each well. Color was allowed to develop at 37° C., 5% CO2, 90% Rh for 1-1.5 h or until reasonable signal appeared. The colorimetric reaction was stopped with the addition of 60 μL/well 1M sodium carbonate. Plates were counted at 405 nm on a SpectraMax Microplate Reader (Molecular Devices). Data was analyzed in Microsoft Excel and IC/EC50 curves were fit using a standardized macro.

[2] = biological target: T2, human adenosine A1 receptor (Homo sapiens, UniProt P30542); test: Adenosine A1 Receptor Functional Assay (A1GAL2); assay type: cell-based; conditions: CHO-K1 cells, cAMP inducible beta-galactosidase reporter, 4 nM r-PIA/1 uM Forskolin challenge
T2 construct: expressed in transfected cells; host or cells: CHO-K1
T2 sequence (P30542 1-326): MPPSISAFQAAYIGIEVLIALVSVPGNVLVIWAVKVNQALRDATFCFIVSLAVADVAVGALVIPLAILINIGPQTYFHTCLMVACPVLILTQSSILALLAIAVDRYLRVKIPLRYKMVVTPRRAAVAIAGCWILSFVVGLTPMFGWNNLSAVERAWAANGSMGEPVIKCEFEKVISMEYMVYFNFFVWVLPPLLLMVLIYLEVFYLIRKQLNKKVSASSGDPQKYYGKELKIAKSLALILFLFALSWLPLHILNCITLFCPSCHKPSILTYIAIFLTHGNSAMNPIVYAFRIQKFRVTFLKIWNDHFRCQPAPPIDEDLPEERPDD
Description: Adenosine A1 Receptor Functional Assay (A1GAL2)
To initiate the functional assay, cryopreserved CHO-K1 cells overexpressing the human adenosine A1 receptor and containing a cAMP inducible beta-galactosidase reporter gene were thawed, centrifuged, DMSO containing media removed, and then seeded with fresh culture media into clear 384-well tissue culture treated plates (BD #353961) at a concentration of 10K cells/well. Prior to assay, these plates were cultured for two days at 37° C., 5% CO2, 90% Rh. On the day of the functional assay, culture media was removed and replaced with 45 uL assay medium (Hams/F-12 Modified (Mediatech #10-080CV) supplemented w/0.1% BSA). Test compounds were diluted and 11 point curves created at a 1000× concentration in 100% DMSO. Immediately after addition of assay media to the cell plates, 50 nL of the appropriate test compound antagonist or agonist control curves were added to cell plates using a Cartesian Hummingbird. Compound curves were allowed to incubate at room temperature on cell plates for approximately 15 minutes before addition of a 4 nM r-PIA (Sigma P4532)/1 uM Forskolin (Sigma F3917) agonist challenge (5 uL volume). A control curve of r-PIA in 1 uM Forskolin, a DMSO/Media control, and a single dose of Forskolin were also included on each plate. After additions, cell plates were allowed to incubate at 37° C., 5% CO2, 90% Rh for 5.5-6 hours. After incubation, media was removed, and cell plates were washed 1×50 uL with DPBS w/o Ca & Mg (Mediatech 21-031-CV). Into dry wells, 20 uL of 1× Reporter Lysis Buffer (Promega E3971 (diluted in dH2O from 5× stock)) was added to each well and plates frozen at −20° C. overnight. For β-galactosidase enzyme calorimetric assay, plates were thawed out at room temperature and 20 μL 2× assay buffer (Promega) was added to each well. Color was allowed to develop at 37° C., 5% CO2, 90% Rh for 1-1.5 h or until reasonable signal appeared. The calorimetric reaction was stopped with the addition of 60 μL/well 1M sodium carbonate. Plates were counted at 405 nm on a SpectraMax Microplate Reader (Molecular Devices). Data was analyzed in Microsoft Excel and IC/EC50 curves were fit using a standardized macro.

[3] = biological target: T3, human A2a adenosine receptor (Homo sapiens, UniProt P29274); test: Ligand Binding Assay for Adenosine A2a Receptor; conditions: HEK293 plasma membrane, radioligand [3H]CGS21680; read-out: A2A-B Ki
T3 construct: purchased PerkinElmer RB-HA2a; host or cells: HEK293 plasma membranes
Description: Ligand Binding Assay for Adenosine A2a Receptor
Ligand binding assay of adenosine A2a receptor was performed using plasma membrane of HEK293 cells containing human A2a adenosine receptor (PerkinElmer, RB-HA2a) and radioligand [^3H]CGS21680 (PerkinElmer, NET1021). Assay was set up in 96-well polypropylene plate in total volume of 200 μL by sequentially adding 20 μL 1:20 diluted membrane, 130 μL assay buffer (50 mM Tris.HCl, pH7.4 10 mM MgCl2, 1 mM EDTA) containing [^3H] CGS21680, 50 μL diluted compound (4×) or vehicle control in assay buffer. Nonspecific binding was determined by […] NECA. Reaction was carried out at room temperature for 2 hours before filtering through 96-well GF/C filter plate pre-soaked in 50 mM Tris.HCl, pH7.4 containing 0.3% polyethylenimine. Plates were then washed 5 times with cold 50 mM Tris.HCl, pH7.4, dried and sealed at the bottom. Microscintillation fluid 30 μL was added to each well and the top sealed. Plates were counted on Packard Topcount for [^3H]. Data was analyzed in Microsoft Excel and GraphPad Prism programs. (Varani, K.; Gessi, S.; Dalpiaz, A.; Borea, P. A. British Journal of Pharmacology, 1996, 117, 1693)

T3 sequence (P29274 whole entry): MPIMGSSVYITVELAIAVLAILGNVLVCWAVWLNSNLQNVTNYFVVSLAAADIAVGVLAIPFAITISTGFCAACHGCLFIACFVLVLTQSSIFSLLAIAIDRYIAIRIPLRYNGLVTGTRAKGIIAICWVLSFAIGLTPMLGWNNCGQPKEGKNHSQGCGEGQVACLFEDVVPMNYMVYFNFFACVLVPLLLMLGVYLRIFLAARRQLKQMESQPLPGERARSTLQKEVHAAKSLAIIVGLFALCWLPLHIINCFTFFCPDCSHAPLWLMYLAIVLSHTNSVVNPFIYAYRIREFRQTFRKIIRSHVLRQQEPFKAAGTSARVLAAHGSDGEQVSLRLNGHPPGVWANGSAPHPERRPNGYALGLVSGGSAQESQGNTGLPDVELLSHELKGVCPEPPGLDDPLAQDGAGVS
T1 sequence (P29274 whole entry): as above

| SMILES | Ki [1] | Ki [2] | Ki [3] |
| --- | --- | --- | --- |
| Cc1csc(-c2nc(N)c3cc(C4(c5ccccc5)CC4)sc3n2)n1 [Example 10, 2-(4-Methyl-thiazol-2-yl)-6-(1-phenyl-cyclopropyl)-thieno[2,3-d]pyrimidin-4-ylamine] | 107 nM | > 610 nM | – |
| Cc1ccc(-c2nc(N)c3cc(Cc4ccccc4)sc3n2)o1 [Example 1, 6-Benzyl-2-(5-methyl-furan-2-yl)-thieno[2,3-d]pyrimidin-4-ylamine] | 11 nM | 279 nM | 11.9 nM |
| Nc1nc(-c2ccc(C(F)F)o2)nc2sc(C(O)c3ccccc3)cc12 (centres unmarked) [Example 41, [4-Amino-2-(5-difluoromethyl-furan-2-yl)-thieno[2,3-d]pyrimidin-6-yl]-phenyl-methanol] | 11.3 nM | 223 nM | 17.9 nM |
| Cc1csc(-c2nc(N)c3cc(Cc4ccccc4)sc3n2)n1 [Example 14, 6-Benzyl-2-(4-methyl-thiazol-2-yl)-thieno[2,3-d]pyrimidin-4-ylamine] | 16.1 nM | 1490 nM | 46.3 nM |
| Cc1ccc(-c2nc(N)c3cc(C(O)c4ccccc4)sc3n2)o1 (centres unmarked) [Example 2, [4-Amino-2-(5-methyl-furan-2-yl)-thieno[2,3-d]pyrimidin-6-yl]-phenyl-methanol] | 2.28 nM | 20.8 nM | – |
| CCc1ccc(-c2nc(N)c3cc(Cc4ccccc4)sc3n2)o1 [Example 8, 6-Benzyl-2-(5-ethyl-furan-2-yl)-thieno[2,3-d]pyrimidin-4-ylamine] | 48.8 nM | 223 nM | – |
| Nc1nc(-c2cnco2)nc2sc(Cc3ccccc3)cc12 [Example 19, 6-Benzyl-2-oxazol-5-yl-thieno[2,3-d]pyrimidin-4-ylamine] | 2.48 nM | 100 nM | – |
| Cc1ccc(-c2nc(N)c3cc(C(C)c4ccccc4)sc3n2)o1 (racemic) [Example 16, (±)-2-(5-Methyl-furan-2-yl)-6-(1-phenyl-ethyl)-thieno[2,3-d]pyrimidin-4-ylamine] | 47.8 nM | 910 nM | – |
| Cc1nc(-c2nc(N)c3cc(Cc4ccccc4)sc3n2)cs1 [Example 28, 6-Benzyl-2-(2-methyl-thiazol-4-yl)-thieno[2,3-d]pyrimidin-4-ylamine] | 57.2 nM | 263 nM | – |
| Nc1nc(-c2cnccn2)nc2sc(Cc3ccccc3)cc12 [Example 32, 6-Benzyl-2-pyrazin-2-yl-thieno[2,3-d]pyrimidin-4-ylamine] | 2.42 nM | 90.9 nM | – |
| N#Cc1cccc(-c2nc(N)c3cc(Cc4ccccc4)sc3n2)n1 [Example 24, 6-(4-Amino-6-benzyl-thieno[2,3-d]pyrimidin-2-yl)-pyridine-2-carbonitrile] | 26.4 nM | > 1040 nM | – |
| COc1ccccc1Cc1cc2c(N)nc(-c3ccc(C(F)F)o3)nc2s1 [Example 39, 2-(5-Difluoromethyl-furan-2-yl)-6-(2-methoxy-benzyl)-thieno[2,3-d]pyrimidin-4-ylamine] | 13 nM | 516 nM | – |

The next lines start with the values.

| Ki [1] | Ki [2] | Ki [3] | SMILES |
| --- | --- | --- | --- |
| 19.4 nM | 1180 nM | 72.7 nM | CC(c1ccccc1)c1cc2c(N)nc(-c3ncco3)nc2s1 (racemic) [Example 21, (±)-2-Oxazol-2-yl-6-(1-phenyl-ethyl)-thieno[2,3-d]pyrimidin-4-ylamine] |
| 100 nM | 1420 nM | – | Cc1csc(-c2nc(N)c3cc(C(C)c4ccccc4)sc3n2)n1 (racemic) [Example 17, (±)-2-(4-Methyl-thiazol-2-yl)-6-(1-phenyl-ethyl)-thieno[2,3-d]pyrimidin-4-ylamine] |
| 215 nM | 1420 nM | 192 nM | Nc1nc(-c2cccnc2)nc2sc(Cc3ccccc3)cc12 [Example 13, 6-Benzyl-2-pyridin-3-yl-thieno[2,3-d]pyrimidin-4-ylamine] |
| 304 nM | 3160 nM | – | N#Cc1ccc(-c2nc(N)c3cc(Cc4ccccc4)sc3n2)o1 [Example 18, 5-(4-Amino-6-benzyl-thieno[2,3-d]pyrimidin-2-yl)-furan-2-carbonitrile] |
| 13.2 nM | 186 nM | – | COc1ccccc1Cc1cc2c(N)nc(-c3nc(C)cs3)nc2s1 [Example 15, 6-(2-Methoxy-benzyl)-2-(4-methyl-thiazol-2-yl)-thieno[2,3-d]pyrimidin-4-ylamine] |
| 539 nM | 2330 nM | – | Cn1cnc(-c2nc(N)c3cc(Cc4ccccc4)sc3n2)c1 [Example 20, 6-Benzyl-2-(1-methyl-1H-imidazol-4-yl)-thieno[2,3-d]pyrimidin-4-ylamine] |
| 263 nM | 861 nM | – | Nc1nc(-c2ccc(C3CC3)o2)nc2sc(Cc3ccccc3)cc12 [Example 23, 6-Benzyl-2-(5-cyclopropyl-furan-2-yl)-thieno[2,3-d]pyrimidin-4-ylamine] |
| 4.37 nM | 34.4 nM | – | COc1ccccc1C(O)c1cc2c(N)nc(-c3ccc(C(F)F)o3)nc2s1 (centres unmarked) [Example 45, [4-Amino-2-(5-difluoromethyl-furan-2-yl)-thieno[2,3-d]pyrimidin-6-yl]-(2-methoxy-phenyl)-methanol] |
| – | – | 328 nM | Cc1ccc(-c2nc(N)c3cc(C(=O)c4ccccc4CN4CCOCC4)sc3n2)o1 [Example 7, [4-Amino-2-(5-methyl-furan-2-yl)-thieno[2,3-d]pyrimidin-6-yl]-(2-morpholin-4-ylmethyl-phenyl)-methanone] |
| 31 nM | > 594 nM | – | C=C(c1ccccc1)c1cc2c(N)nc(-c3nc(C)cs3)nc2s1 [Example 9, 2-(4-Methyl-thiazol-2-yl)-6-(1-phenyl-vinyl)-thieno[2,3-d]pyrimidin-4-ylamine] |
| 17.5 nM | 618 nM | – | Nc1nc(-c2ncccn2)nc2sc(Cc3ccccc3)cc12 [Example 25, 6-Benzyl-2-pyrimidin-2-yl-thieno[2,3-d]pyrimidin-4-ylamine hydrochloride] |
